# Reference: patent US20050158391A1, “Azithromycin multiparticulate dosage forms by melt-congeal processes” (Pfizer Inc, priority 2003, published 2005)
# Where two headings read alike, the source gives them in different places.
# What was measured:
# [1] = cited from earlier work
# [2] = Degree of acid/ester substitution [A] from Saponification Number; type: physicochemical; details: for [A] degree of acid/ester substitution: Saponification Number (Pharmaceutical Excipients 2000) divided by 56.11
# Text: However, in most cases, the excipient candidate is not available in pure form, and may constitute a mixture of several primary molecular types as well as small amounts of impurities or degradation products that could be acids or esters. In addition, many excipient candidates are natural products or are derived from natural products that may contain a wide range of compounds, making the above calculations extremely difficult, if not impossible. […] The Saponification Number is the number of milligrams of potassium hydroxide required to neutralize or hydrolyze any acid or ester substituents present in 1 gram of the material. Measurement of the Saponification Number is a standard way to characterize many commercially available pharmaceutical excipients and the manufacturer often provides an excipient's Saponification Number. The Saponification Number will not only account for acid and ester substituents present on the excipient itself, but also for any such substituents present due to impurities or degradation products in the excipient. Thus, the Saponification Number will often provide a more accurate measure of the degree of acid/ester substitution in the excipient.
# The degree of acid and ester substitution on a excipient can be calculated from the Saponification Number as follows. Dividing the Saponification Number by the molecular weight of potassium hydroxide, 56.11 g/mol, results in the number of millimoles of potassium hydroxide required to neutralize or hydrolyze any acid or ester substituents present in one gram of the excipient. Since one mole of potassium hydroxide will neutralize one equivalent of acid or ester substituents, dividing the Saponification Number by the molecular weight of potassium hydroxide also results in the number of meq of acid or ester substituents present in one gram of excipient.
# For example, glyceryl monostearate can be obtained with a Saponification Number of 165, as specified by the manufacturer. Thus, the degree of acid/ester substitution per gram of glyceryl monostearate or its acid/ester concentration is 165÷56.11=2.9 meq/g excipient. Using the above example of a composition with 30 wt % azithromycin and 70 wt % glyceryl monostearate, the theoretical concentration of esters formed per gram of azithromycin if all of the azithromycin reacted would be 2.9 meq/g×70/30=6.8 meq/g.
# This example illustrates how the degree of acid/ester substitution can be determined from the Saponification Number for an excipient. The degree of acid/ester substitution [A] for the excipients listed in Table 5 was determined by dividing by 56.11 the Saponification Number for the carrier as listed in Pharmaceutical Excipients 2000.
# This example illustrates how the degree of acid/ester substitution can be determined from the Saponification Number for an excipient. The degree of acid/ester substitution for the excipients listed in Table 6 were determined by dividing by 56.11 the Saponification Number provided by the manufacturer.
# [3] = Solubility of azithromycin dihydrate in molten excipient; type: physicochemical; details: 65° C.
# Procedure: The solubility of azithromycin dihydrate in beeswax was measured using the following procedure. A 5 g sample of beeswax was placed in a glass vial and melted at 65° C. by placing the vial in a hot-water bath. Crystals of azithromycin dihydrate were then slowly added to the molten wax, with stirring. The crystals first added dissolved into the wax. […] Thus, the solubility of azithromycin dihydrate in beeswax was determined to be about 6 wt %.
# Using the procedure outlined in Screening Example 29, the solubility of azithromycin dihydrate in the excipients listed in Table 8 was determined at the temperatures listed therein. In addition, the solubility of azithromycin dihydrate was determined for mixtures of carriers in the weight ratios reported in Table 8.
# [4] = as listed in Pharmaceutical Excipients 2000
molecule,measurement,setting,value
CCCCCCCCCCCCCCCCCC(=O)OCC(O)CO (stereo not drawn) [glyceryl monostearate],Saponification Number,[1]; [4],155-165
same,Saponification Number,[1]; as specified by the manufacturer (description example),165
same,degree of acid/ester substitution (acid/ester concentration),[2]; 165÷56.11,2.9 meq/g excipient
same,[A] degree of acid/ester substitution,[2],2.8-2.9 meq/g carrier
CCCCCCCCCCCCCCCCO [cetyl alcohol],Saponification Number,[1]; [4],<2
same,[A] degree of acid/ester substitution,[2],<0.04 meq/g carrier
"CC[C@H]1OC(=O)[C@H](C)[C@@H](O[C@H]2C[C@@](C)(OC)[C@@H](O)[C@H](C)O2)[C@H](C)[C@@H](O[C@@H]2O[C@H](C)C[C@H](N(C)C)[C@H]2O)[C@](C)(O)C[C@@H](C)CN(C)[C@H](C)[C@@H](O)[C@]1(C)O [azithromycin dihydrate, 9a-aza-9a-methyl-9-deoxo-9a-homoerythromycin A]",solubility of azithromycin dihydrate in beeswax,[3],about 6 wt %
CCCCCCCC/C=C\CCCCCCCC(=O)OCC(O)CO (stereo not drawn) [glyceryl monooleate],Saponification Number,[1]; [4],160-170
same,[A] degree of acid/ester substitution,[2],2.9-3.0 meq/g carrier
sorbitan monostearate,Saponification Number,[1]; [4],147-157
same,[A] degree of acid/ester substitution,[2],2.6-2.8 meq/g carrier
"CCCCCCCCCCCCCCCCCCO [stearyl alcohol, 1-octadecanol]",Saponification Number,[1]; [4],<2
same,[A] degree of acid/ester substitution,[2],<0.04 meq/g carrier
"CCCCCCCCCCCCCCCCCC(=O)O [stearic acid, octadecanoic acid]",Saponification Number,[1]; [4],200-220
same,[A] degree of acid/ester substitution,[2],3.6-3.9 meq/g carrier
